{"source": "ChEMBL document CHEMBL4028819", "about": "“Synthesis, antiplatelet and antithrombotic activities of resveratrol derivatives with NO-donor properties” (Bioorg Med Chem Lett, 2017)", "key": {"Mus musculus [1]": {"test_system": "Mus musculus", "test": "Toxicity in Swiss albino mouse assessed as bleeding time at 100 umol/10 g administered orally 60 mins prior to test by tail transection method", "conditions": "in vivo, po, 1 h"}, "Platelet [2]": {"test_system": "Platelet", "test": "Antiplatelet activity in Wistar rat platelet rich plasma assessed as inhibition of arachidonic acid-induced platelet aggregation at 150 uM preincubated for 1 min followed by arachidonic acid addition by aggregometric analysis relative to control", "assay_type": "functional"}, "Platelet [3]": {"test_system": "Platelet", "test": "Antiplatelet activity in Wistar rat platelet rich plasma assessed as inhibition of collagen-induced platelet aggregation at 150 uM preincubated for 1 min followed by collagen addition by aggregometric analysis relative to control", "assay_type": "functional"}, "Mus musculus [4]": {"test_system": "Mus musculus", "test": "Anti-thrombotic activity in Swiss albino mouse assessed as protection against collagen/epinephrine-induced pulmonary thromboembolism at 100 umol/10 g, po administered as single dose pretreated for 60 mins followed by thrombotic challenge relative to control", "assay_type": "functional"}, "Platelet [5]": {"test_system": "Platelet", "test": "Antiplatelet activity in Wistar rat platelet rich plasma assessed as inhibition of ADP-induced platelet aggregation at 150 uM preincubated for 1 min followed by ADP addition by aggregometric analysis relative to control", "assay_type": "functional"}, "[6]": {"test": "Induction of NO release assessed as nitrite formation in aqueous buffer at pH 7.4 measured after 1 hr in presence of L-cysteine by Griess assay", "design": "concentration or dose not given beside the values"}}, "note": "Active and inactive are the calls of the source. No cut-off for these calls is given here.", "data": [{"compound": "CC(=O)Oc1ccccc1C(=O)O", "note": "[ASPIRIN]", "values": [{"measurement": "Time", "setting": "Mus musculus [1]", "value": 800, "unit": "s"}, {"measurement": "inhibition at 150 µM", "setting": "Platelet [2]", "value": 28.9, "unit": "%"}, {"measurement": "inhibition at 150 µM", "setting": "Platelet [3]", "value": 63.4, "unit": "%"}, {"measurement": "Activity", "setting": "Mus musculus [4]", "value": 40, "unit": "%"}, {"measurement": "inhibition at 150 µM", "setting": "Platelet [5]", "value": 27.7, "unit": "%"}]}, {"compound": "O=C(N/N=C/c1ccc(Oc2no[n+]([O-])c2S(=O)(=O)c2ccccc2)cc1)c1ccc(O)cc1", "values": [{"measurement": "Activity", "setting": "[6]", "value": 25.8, "unit": "%"}, {"measurement": "Time", "setting": "Mus musculus [1]", "value": 380, "unit": "s"}, {"measurement": "inhibition at 150 µM", "setting": "Platelet [2]", "value": 20.3, "unit": "%"}, {"measurement": "inhibition at 150 µM", "setting": "Platelet [3]", "value": 72.2, "unit": "%"}, {"measurement": "Activity", "setting": "Mus musculus [4]", "value": 80, "unit": "%"}, {"measurement": "inhibition at 150 µM", "setting": "Platelet [5]", "value": 87.1, "unit": "%"}]}, {"compound": "O=C(N/N=C/c1cccc(O)c1)c1ccccc1O", "values": [{"measurement": "inhibition at 150 µM", "setting": "Platelet [2]", "value": 60.8, "unit": "%"}, {"measurement": "inhibition at 150 µM", "setting": "Platelet [3]", "value": 27.5, "unit": "%"}, {"measurement": "inhibition at 150 µM", "setting": "Platelet [5]", "value": 56, "unit": "%"}]}, {"compound": "O=C(N/N=C/c1cccc(Oc2no[n+]([O-])c2S(=O)(=O)c2ccccc2)c1)c1ccccc1O", "values": [{"measurement": "Activity", "setting": "[6]", "value": 25.3, "unit": "%"}, {"measurement": "inhibition at 150 µM", "setting": "Platelet [2]", "value": 17, "unit": "%"}, {"measurement": "inhibition at 150 µM", "setting": "Platelet [3]", "value": 25.5, "unit": "%"}, {"measurement": "inhibition at 150 µM", "setting": "Platelet [5]", "value": 84.2, "unit": "%"}]}, {"compound": "O=C(N/N=C/c1ccc(O)cc1)c1cccc(O)c1", "values": [{"measurement": "inhibition at 150 µM", "setting": "Platelet [2]", "value": 72.8, "unit": "%"}, {"measurement": "inhibition at 150 µM", "setting": "Platelet [3]", "value": 19.1, "unit": "%"}, {"measurement": "inhibition at 150 µM", "setting": "Platelet [5]", "value": 60.3, "unit": "%"}]}, {"compound": "O=S(=O)(c1ccccc1)c1no[n+]([O-])c1S(=O)(=O)c1ccccc1", "values": [{"measurement": "Activity", "setting": "[6]", "value": 32.1, "unit": "%"}, {"measurement": "inhibition at 150 µM", "setting": "Platelet [2]", "value": 6.7, "unit": "%"}, {"measurement": "inhibition at 150 µM", "setting": "Platelet [3]", "value": 29.7, "unit": "%"}, {"measurement": "Activity", "setting": "Mus musculus [4]", "value": "inactive"}, {"measurement": "inhibition at 150 µM", "setting": "Platelet [5]", "value": 89.8, "unit": "%"}]}, {"compound": "O=C(N/N=C/c1ccc(O)cc1)c1ccccc1O", "values": [{"measurement": "inhibition at 150 µM", "setting": "Platelet [2]", "value": 42.5, "unit": "%"}, {"measurement": "inhibition at 150 µM", "setting": "Platelet [3]", "value": 35.9, "unit": "%"}, {"measurement": "inhibition at 150 µM", "setting": "Platelet [5]", "value": 58.2, "unit": "%"}]}, {"compound": "O=C(N/N=C/c1ccc(O)cc1)c1ccc(O)cc1", "values": [{"measurement": "Time", "setting": "Mus musculus [1]", "value": 200, "unit": "s"}, {"measurement": "inhibition at 150 µM", "setting": "Platelet [2]", "value": 79.6, "unit": "%"}, {"measurement": "inhibition at 150 µM", "setting": "Platelet [3]", "value": 44, "unit": "%"}, {"measurement": "Activity", "setting": "Mus musculus [4]", "value": 40, "unit": "%"}, {"measurement": "inhibition at 150 µM", "setting": "Platelet [5]", "value": 31.3, "unit": "%"}]}, {"compound": "O=C(N/N=C/c1cccc(O)c1)c1cccc(O)c1", "values": [{"measurement": "inhibition at 150 µM", "setting": "Platelet [2]", "value": 48.2, "unit": "%"}, {"measurement": "inhibition at 150 µM", "setting": "Platelet [3]", "value": 29.1, "unit": "%"}, {"measurement": "inhibition at 150 µM", "setting": "Platelet [5]", "value": 46.1, "unit": "%"}]}, {"compound": "O=C(N/N=C/c1cccc(O)c1)c1ccc(O)cc1", "values": [{"measurement": "inhibition at 150 µM", "setting": "Platelet [2]", "value": 74.1, "unit": "%"}, {"measurement": "inhibition at 150 µM", "setting": "Platelet [3]", "value": 33.1, "unit": "%"}, {"measurement": "inhibition at 150 µM", "setting": "Platelet [5]", "value": 42.4, "unit": "%"}]}, {"compound": "O=C(N/N=C/c1cccc(Oc2no[n+]([O-])c2S(=O)(=O)c2ccccc2)c1)c1cccc(O)c1", "values": [{"measurement": "Activity", "setting": "[6]", "value": 24.1, "unit": "%"}, {"measurement": "inhibition at 150 µM", "setting": "Platelet [2]", "value": 25, "unit": "%"}, {"measurement": "inhibition at 150 µM", "setting": "Platelet [3]", "value": 44.8, "unit": "%"}, {"measurement": "inhibition at 150 µM", "setting": "Platelet [5]", "value": 88.4, "unit": "%"}]}, {"compound": "O=C(N/N=C/c1cccc(Oc2no[n+]([O-])c2S(=O)(=O)c2ccccc2)c1)c1ccc(O)cc1", "values": [{"measurement": "Activity", "setting": "[6]", "value": 27.4, "unit": "%"}, {"measurement": "inhibition at 150 µM", "setting": "Platelet [2]", "value": 14.3, "unit": "%"}, {"measurement": "inhibition at 150 µM", "setting": "Platelet [3]", "value": 39.9, "unit": "%"}, {"measurement": "inhibition at 150 µM", "setting": "Platelet [5]", "value": 91.9, "unit": "%"}]}, {"compound": "O=C(N/N=C/c1ccc(Oc2no[n+]([O-])c2S(=O)(=O)c2ccccc2)cc1)c1ccccc1O", "values": [{"measurement": "Activity", "setting": "[6]", "value": 24.5, "unit": "%"}, {"measurement": "inhibition at 150 µM", "setting": "Platelet [2]", "value": 8.5, "unit": "%"}, {"measurement": "inhibition at 150 µM", "setting": "Platelet [3]", "value": 34.4, "unit": "%"}, {"measurement": "inhibition at 150 µM", "setting": "Platelet [5]", "value": 74.3, "unit": "%"}]}, {"compound": "O=C(N/N=C/c1ccc(Oc2no[n+]([O-])c2S(=O)(=O)c2ccccc2)cc1)c1cccc(O)c1", "values": [{"measurement": "Activity", "setting": "[6]", "value": 26.2, "unit": "%"}, {"measurement": "inhibition at 150 µM", "setting": "Platelet [2]", "value": 37.3, "unit": "%"}, {"measurement": "inhibition at 150 µM", "setting": "Platelet [3]", "value": 54.3, "unit": "%"}, {"measurement": "inhibition at 150 µM", "setting": "Platelet [5]", "value": 82.2, "unit": "%"}]}]}
